In patent US8859614B2 (University of Nebraska—Lincoln, priority 2008, dated 2014):
“And” between values parts separate entries of the source, which are not always exact repeats. Equal values may be shown once. “Also recorded” adds a separate entry of the source.

Columns and labels:
MDA-MB-231 cells [1] = assay: MDA-MB-231 in vitro cell viability (MTT assay); format: cell-based, human; conditions: PPP 500 nM; MTT on days 2, 4 and 6
Description: FIG. 8A-C. In vitro inhibition of Igf1r action. Representative experiments of pharmacological inhibition of IGF1R in MDA-MB-231 cells by picropodophyllin (A) or by IGF1R knockdown using a dominant-negative construct (B) or siRNA (C). The absorbance (mean values±S.E.M.) reflects cell numbers estimated from duplicate samples using the MTT assay (see Experimental Procedures). […] (B) Plasmid 486Stop (encoding dominant-negative IGF1R) or a control plasmid (pcDNA3) were introduced in MDA-MB-231 cells by nucleofection following the manufacturer's protocol (1.5 μg of plasmid DNA per […]; Amaxa Biosystems). The same method was used to introduce into these cells a 19-bp RNA duplex (R4) targeting IGR1R mRNA or a scrambled control duplex (Scr4; see SI Materials and Methods, for details). […]
Details of the preclinical trial using picropodophyllin synthesized as described (Buchardt O, et al. J. Pharm. Sci. (1986), 75:1076-1080) and Erlotinib (purchased from Hwasun Biotechnology Co) are described in Results. […] The lengths of axes were determined microscopically from sections of tumor nodules using a computer assisted morphometry system (SpotAdvanced VS. 4.0.1, Nikon Eclipse E400). […] Cell viability (duplicates) was measured on days 2, 4 and 6 by using the Thiazolyl Blue Tetrazolium Bromide (MTT) colorimetric assay (Mosmann T, J. Immunol. Methods (1983), 65:55-63).

[2] = tested on: murine breast cancer cell line derived from Kras* mice; assay: MTT cell growth assay on a Kras* breast cancer cell line; format: cell-based, mouse; conditions: for MTT colorimetric reading reflecting cell density, Day 2, Average / MTT colorimetric reading reflecting cell density, Day 2, individual duplicate wells / Inhibition of growth of the Kras* breast cancer cell line (in words): 500 nM, 48 h; for MTT colorimetric reading reflecting cell density, Day 2, Average: average of duplicates, Day 0 0.3675, no drug 0.792; for MTT colorimetric reading reflecting cell density, Day 2, individual duplicate wells: wells 1 and 2, Day 0 0.373/0.362, no drug 0.959/0.625
Protocol: A murine breast cancer cell line derived from Kras* mice was used to assay the effect of IGF1RK inhibitors. Approximately 30,000 cells/well were plated in a 24-well plate which corresponds to 20% confluence. The next day (Day 0 for the experiment) two of wells were treated with MTT (Thiazol Blue Tetrazolium), a substrate used in a colorimetric metabolic assay that reflects cell density. […] Forty-eight hours later the duplicate wells were assayed.

[3] = tested on: Kras*-induced mammary carcinomas; assay: Drug treatment of Kras*-induced mouse mammary carcinomas; format: in vivo
[4] = tested on: Kras*-induced mammary carcinomas; assay: as above; format: in vivo; conditions: for Macroscopic and histopathological effect on tumors and tumor components (in words): 3 weeks of treatment; for Tumor volume per gland / Tumor volume per gland (Table 10): Mean ± S.E.M.; for Tumor volume per gland / Tumor volume per gland, % of control (vehicle): i.p. once daily for 3 weeks, PPP 30 mg/kg, Erlotinib 50 mg/kg; for Tumor volume per gland: vehicle 217.8 ± 65.6; for Tumor volume per gland, % of control (vehicle): vehicle = 100; for Tumor volume per gland (Table 10): pooled vehicle controls 243.3 ± 68.9 (9 mice); for Potency relative to PPP against Kras*-induced mammary carcinomas: from % tumor volume versus control; for Tumor volume per gland, % of pooled vehicle control (Table 10): pooled vehicle control = 100
Protocol: (§1) Details of the preclinical trial using picropodophyllin synthesized as described (Buchardt O, et al. J. Pharm. Sci. (1986), 75:1076-1080) and Erlotinib (purchased from Hwasun Biotechnology Co) are described in Results. The drugs were dissolved in DMSO and cremophor (9:1) and injected intraperitoneally. To calculate tumor volumes, the formula for a prolate spheroid (π/6×a×b2 or ˜a×b2/2, where a and b are the major and minor axis, respectively) was used. The lengths of axes were determined microscopically from sections of tumor nodules using a computer assisted morphometry system (SpotAdvanced VS. 4.0.1, Nikon Eclipse E400). For xenograft experiments, 5×10^6 MDA-MB-231 cells were injected bilaterally into the fat pads of mammary glands 3 and 4 of female SCID/NOD mice. […] For in vitro experiments, MDA-MB-231 cells were grown in DMEM supplemented with 10% fetal bovine serum. […] Cell viability (duplicates) was measured on days 2, 4 and 6 by using the Thiazolyl Blue Tetrazolium Bromide (MTT) colorimetric assay (Mosmann T, J. Immunol. Methods (1983), 65:55-63).
First, the tumors developing in each gland tended to be multifocal and uneven, and progressively coalesced into larger masses precluding reliable evaluation.
After 21 days of treatment, the mice are sacrificed, weighed, and the initial tumors measured individually. In addition, tumors which were not palpable at the time of initial palpation, but had grown during the therapy period, are also isolated.
The efficacy of compounds 18 “(NB3)” and 21 “(NB6)” to ameliorate Kras*-induced mouse mammary carcinomas was tested. While testing NB3 and NB6 (4 mice each), 2 controls were added (2 tumor-bearing mice treated with vehicle).

MDA-MB-231 cells [5] = assay: MDA-MB-231 orthotopic xenografts in SCID/NOD mice; format: in vivo, human
Protocol: as §1
Nevertheless, in conjunction with the mouse data, these observations provide strong justification for further evaluations of the drug against human breast cancer.

insulin receptor = insulin receptor (Homo sapiens, UniProt P06213); conditions: Girnita 2004; Vasilcanu 2008; cited from earlier work
insulin receptor, sequence (P06213 28-1382, species assumed): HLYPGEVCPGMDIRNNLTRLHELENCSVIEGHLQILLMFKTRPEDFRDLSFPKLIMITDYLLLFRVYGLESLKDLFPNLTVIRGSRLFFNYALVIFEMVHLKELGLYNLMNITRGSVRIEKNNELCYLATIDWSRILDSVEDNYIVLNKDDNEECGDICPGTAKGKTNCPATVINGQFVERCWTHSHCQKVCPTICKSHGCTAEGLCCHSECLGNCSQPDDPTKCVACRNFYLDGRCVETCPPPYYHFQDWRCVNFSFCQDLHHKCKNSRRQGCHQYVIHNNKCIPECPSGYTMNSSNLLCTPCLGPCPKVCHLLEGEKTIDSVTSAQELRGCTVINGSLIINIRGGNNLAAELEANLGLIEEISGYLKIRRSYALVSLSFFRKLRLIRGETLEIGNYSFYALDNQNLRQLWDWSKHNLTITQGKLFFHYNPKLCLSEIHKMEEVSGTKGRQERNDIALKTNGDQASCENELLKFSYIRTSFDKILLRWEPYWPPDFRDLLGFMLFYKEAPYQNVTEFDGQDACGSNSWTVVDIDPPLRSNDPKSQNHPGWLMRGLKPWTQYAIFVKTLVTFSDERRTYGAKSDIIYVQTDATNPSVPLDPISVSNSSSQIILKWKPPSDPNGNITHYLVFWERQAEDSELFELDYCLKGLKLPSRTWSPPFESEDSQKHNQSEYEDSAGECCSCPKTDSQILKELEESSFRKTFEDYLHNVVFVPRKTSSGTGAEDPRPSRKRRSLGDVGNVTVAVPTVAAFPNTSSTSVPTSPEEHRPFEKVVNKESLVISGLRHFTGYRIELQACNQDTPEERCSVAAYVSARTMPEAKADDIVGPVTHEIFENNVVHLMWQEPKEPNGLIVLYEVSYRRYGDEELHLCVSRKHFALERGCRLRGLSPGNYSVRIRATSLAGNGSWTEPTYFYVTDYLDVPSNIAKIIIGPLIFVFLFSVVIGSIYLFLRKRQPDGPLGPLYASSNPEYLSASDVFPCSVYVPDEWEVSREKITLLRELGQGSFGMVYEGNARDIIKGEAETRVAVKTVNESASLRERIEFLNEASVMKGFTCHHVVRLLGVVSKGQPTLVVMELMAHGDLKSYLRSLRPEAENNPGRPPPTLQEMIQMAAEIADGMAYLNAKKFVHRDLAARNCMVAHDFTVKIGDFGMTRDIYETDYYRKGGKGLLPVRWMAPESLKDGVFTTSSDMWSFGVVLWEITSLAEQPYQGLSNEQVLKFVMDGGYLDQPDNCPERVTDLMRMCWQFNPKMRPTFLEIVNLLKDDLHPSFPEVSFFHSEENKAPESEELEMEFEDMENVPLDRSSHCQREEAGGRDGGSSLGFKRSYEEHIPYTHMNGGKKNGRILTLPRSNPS

[6] = molecular target: T1, human Insulin-like Growth Factor I Receptor Kinase (IGF1 RK) domain (Homo sapiens, UniProt P08069); conditions: background statement; cited from earlier work
T1 construct: human Insulin-like Growth Factor I Receptor Kinase (IGF1 RK) domain
T1 sequence (P08069 999-1274 limits assumed): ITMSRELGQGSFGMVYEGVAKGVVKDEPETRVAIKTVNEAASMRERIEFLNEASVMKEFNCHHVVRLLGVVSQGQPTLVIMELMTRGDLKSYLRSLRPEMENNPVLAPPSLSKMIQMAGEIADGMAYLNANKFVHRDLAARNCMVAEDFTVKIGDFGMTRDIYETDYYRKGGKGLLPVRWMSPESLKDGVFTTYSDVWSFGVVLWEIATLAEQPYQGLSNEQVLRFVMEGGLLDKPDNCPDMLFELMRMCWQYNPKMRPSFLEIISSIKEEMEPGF

Compound	MTT colorimetric reading reflecting cell density, Day 2, Average [2]	MTT colorimetric reading reflecting cell density, Day 2, individual duplicate wells [2]	Macroscopic and histopathological effect on tumors and tumor components (in words) [4]	Tumor volume per gland [4] [mm^3]	Tumor volume per gland, % of control (vehicle) [4]	Inhibition of growth of the Kras* breast cancer cell line (in words) [2]	Tumor volume per gland (Table 10) [4] [mm^3]	Potency relative to PPP against Kras*-induced mammary carcinomas [4]	Tumor volume per gland, % of pooled vehicle control (Table 10) [4] [%]	other results
COc1cc([C@@H]2c3cc4c(cc3[C@H](O)C3COC(=O)[C@H]32)OCO4)cc(OC)c1OC (single isomer, unassigned; (-)) [PPP, (−)-picropodophyllin]	0.4775	0.478 and 0.477	marked reduction or even absence of the pale and squamous cell components; also recorded: dramatically smaller; also recorded: diminishes the size of pale cell tumors	16.0 ± 9.1	~7% and 7.3%					In vitro viability of MDA-MB-231 cells (in words) (MDA-MB-231 cells [1]): drastically reduced; Increase in apoptosis in the pale component (activated caspase 3 immunohistochemistry) versus vehicle ([3]; 3 days of administration): ~9 fold; Proliferation (proliferation indices) in tumors ([3]; 3 days of treatment): at control levels; Total tumor volume per mouse ([4]; after 21 days of daily treatment, vehicle 653±219, p=0.05): 54±28 mm^3; % tumor volume in comparison with the control, normalized to the new control data ([4]; previous PPP value re-normalized to pooled vehicle control): 6.5%; Tumor volume per gland, xenografts (MDA-MB-231 cells [5]; Mean ± S.E.M., SCID/NOD mice, PPP i.p. for 3 weeks, vehicle 304 ± 40.8): 215 ± 18.6 mm^3; Xenograft tumor growth versus vehicle-treated controls (in words) (MDA-MB-231 cells [5]; NOD/SCID mice, orthotopically injected MDA-MB-231 cells): attenuated; Tumor volume per gland, xenografts, % of vehicle (MDA-MB-231 cells [5]; SCID/NOD mice, PPP i.p. for 3 weeks, vehicle = 100): 70.7%; Effect on the homologous insulin receptor (in words) (insulin receptor): not affected; Effect on IGF1 RK kinase activity (in words) [6]: inhibits its kinase activity
COc1cccc([C@@H]2c3cc4c(cc3[C@H](O)C3COC(=O)[C@H]32)OCO4)c1 (stereo partly drawn) [Compound 18, 4′,5′-Didemethoxy-(−)-picropodophyllin]	0.5245	0.483 and 0.566				as effective as PPP	20.9 ± 10.8	same potency as PPP	6.5	IC50 ([2]; Mus musculus, read-out: IC50 for growth inhibition of Kras* breast cancer cell line): ~400 nM
COc1ccc([C@@H]2c3cc4c(cc3[C@H](O)C3COC(=O)[C@H]32)OCO4)cc1 (stereo partly drawn) [Compound 19, 3′,5′-Didemethoxy-(−)-picropodophyllin]						essentially no activity				
COc1cc(OC)cc([C@@H]2c3cc4c(cc3[C@H](O)C3COC(=O)[C@H]32)OCO4)c1 (stereo partly drawn) [Compound 21, 4′-Demethoxy-(−)-picropodophyllin]	0.4845	0.505 and 0.464					2.1 ± 1.0	7 times	0.9	
C#Cc1cccc(Nc2ncnc3cc(OCCOC)c(OCCOC)cc23)c1 [Erlotinib]			reduced predominantly the pale cell component	66.9 ± 29.3	30.7%					
